{
  "source": "patent US20040142405A1",
  "about": "“Method of detecting drug resistance” (priority 2003, published 2004)",
  "key": {"[1]": {"biological_target": "protease encoded by the wild-type viral RNA (HIV-1 PR) (Human immunodeficiency virus type 1 group M subtype B, UniProt P04585)", "assay_type": "biochemical", "description": "(§1) A conventional three electrode cell, consisting of the modified Au electrode, a glassy carbon auxiliary electrode isolated by a glass frit, and a saturated calomel electrode (SCE) connected to the working volume with a Luggin capillary, was used for the electrochemical measurements. The cell was positioned in a grounded Faradaic cage. Impedance measurements were performed using an electrochemical impedance analyzer (EG&G, model 1025) and potentiostat (EG&G, model 283) connected to a computer (EG&G Software Power Suite 1.03 and 270 for impedance measurements). All electrochemical measurements were performed in 0.1 M phosphate buffer, pH 7.0, as a background electrolyte solution. Faradaic impedance measurements were performed in the presence of 10 mM K3[Fe(CN)6]/K4Fe(CN)6] (1:1) mixture, as a redox probe. Impedance measurements were performed at a bias potential of 0.17 V versus SCE using alternating voltage, 10 mV, in the frequency range of 100 mHz to 10 kHz. The impedance spectra were plotted in the form of complex plane diagrams (Nyquist plots).\nThe antibody-functionalized electrode was interacted with varying concentrations of the Gag polyprotein generated in the translation mixture for 60 min. diluted to 1.0 mL in phosphate-buffered saline (PBS) solution, 0.1 M, pH 7.0, at room temperature. […]"}, "G48V mutated PR": {"biological_target": "T1, G48V mutated PR (Human immunodeficiency virus type 1 group M subtype B, UniProt P12497, G536V)", "T1 construct": "a virus encoded protease (PR) which is one of the individual proteins making up the uncleaved polyprotein; made in house; host or cells: cell-free in vitro translation (Biotin in vitro translation kit, Roche 1559951) of RNA from the media of cultured cells infected with HIV-1 G48V", "assay": "Four-path impedance analysis (FIG. 5) of proteins translated from RNA of the HIV-1 G48V mutant", "assay_type": "biochemical, HIV-1 (NL4-3)", "description": "as §1\nThe antibody-functionalized electrode was interacted with varying concentrations of the Gag polyprotein generated in the translation mixture for 60 min. diluted to 1.0 mL in phosphate-buffered saline (PBS) solution, 0.1 M, pH 7.0, at room temperature. After attachment of the respective polyprotein to the sensing interface, the electrode was incubated in the solution of anti-MA or anti-CA (sources were 200-fold diluted) for 30 min at room temperature. After attachment to the respective antibody, the electrode was incubated either in a goat-anti-rabbit-HRP conjugate solution (2.5 μg·mL^−1), for the MA analysis, or in a goat-anti-mouse-HRP conjugate solution (2.5 μg·mL^−1) for the CA analysis, for 30 minutes at room temperature. 4-Chloro-1-naphthol (1) (FIG. 1D) was dissolved initially in ethanol and then the ethanolic stock solution was diluted with 0.1 M phosphate buffer, pH 7.0, to yield the developing solution that included 1×10^−3 M (1) and 2% (v/v) ethanol. […]"}, "[2]": {"tested_on": "viral PR from patients' plasma HIV RNA", "assay": "Four-path impedance analysis (FIG. 5) of RNA extracted from blood samples of AIDS patients treated with saquinavir", "assay_type": "biochemical", "settings": "for α = Ret^B(1)/Ret^A(1): CA units, anti-CA; for β = Ret^B(2)/Ret^A(2): MA units, anti-MA, β≈1.0 drug resistant, β<1 drug sensitive", "description": "Plasma was obtained from consenting donors following removal of blood cells by centrifugation for 5 minutes at 3,000 rpm. The plasma was 3-fold diluted with PBS, and viral particles were peletted by centrifuging the volume for 45 minutes at 45,000 rpm in a Backman centrifuge (SW 50.1 rotor). The viral pellets were suspended in 1 mL TRIzol reagent (Gibco BRL) containing 5-10 μg of tRNA (Sigma) as carrier and RNA was extracted according to the manufacturer's instructions.\nAll the RNA preparations were translated in vitro using the “Biotin in vitro translation kit” (Roche 1559951) in the absence or presence of Saquinavir (Ro 31-8959). Reactions were performed in 50 μL, according to the manufacturer's instructions, using DEPC-treated water. The PR inhibitor Saquinavir was dissolved in 1M NaCl in the DEPC-treated water, and was added to reaction mixtures before starting the synthesis. The reaction mixtures were incubated for 90 min at 30° C. and the reactions were halted by placing in ice or storage at −75° C. until further use in the electrochemical measurements.\nAn extracted RNA specimen 100 is subdivided into two samples, A 102 and B 104. While sample A is subjected to in vitro translation in the presence of the PI, sample B is translated in the absence of the PI. Each of the translation mixtures is then further divided into two equal sub-samples, sample A into sub-samples A(1) 106 and A(2) 108, and sample B into sub-samples B(1) 110 and B(2) 112. The sub-samples A(1) and B(1) are subjected to the analysis of the total CA units using anti-CA, according to FIG. 1B, route (ii). The sub-samples A(2) and B(2) utilize the anti-MA antibody to assess content of polyprotein in the respective samples, according to FIG. 1A and FIG. 1B, route (i). Note that the ratio of the interfacial electron transfer resistances generated upon the precipitation of the precipitate (20) in sub-samples A(2) and B(2) reflect the content of polyprotein generated under PR inhibition vs. the unprocessed (=unhydrolyzed) polyprotein in the system.\nThe ratio of electron transfer resistances of paths A(1) and B(1) should be independent of the PI, and its value should be ≈1. This ratio provides an internal standard for the effectiveness of translations in the entire set of experiments. Thus, the four-path analysis scheme of the mRNA translation processes eliminates the background signal of unprocessed polyproteins in the absence of the inhibitor. The assay also abrogates the difference in the affinities of anti-CA and anti-MA to the respective antigens. Since the original sample is subdivided into equivalent sub-samples prior to translations, the problem of different RNA contents in analysis paths is cancelled out.\nThe analysis scheme outlined in FIG. 5 was applied to detect drug resistance in AIDS patients, treated with saquinavir. In this process, we expect that the analysis of the CA-units by the anti-CA antibodies will lead to an electron transfer resistance ratio of paths A(1) 106 and B(1) 110 in FIG. 5, that corresponds to α=Ret^B(1)/Ret^A(1)≈1.0 whereas the ratio of electron transfer resistance analyzing the MA-units with the anti-MA antibody of paths B(2) 112 and A(2) 108 in FIG. 5 should reveal the value β=Ret^B(2)/Ret^A(2)≈1.0 for drug resistant patients, and β<1 for drug sensitive patients."}, "[3]": {"biological_target": "T2, HIV-1 viral protease (PR) (Human immunodeficiency virus type 1 group M subtype B, UniProt P04585)", "assay_type": "biochemical", "settings": "for interfacial electron transfer resistance Ret after biocatalyzed precipitation of (20) (curve f): translation in the presence of saquinavir 1×10^−4 M, 10 min precipitation, non-inhibited mixture 2500 Ω", "description": "as §1\nThe electrodes were rinsed with water, dried, and soaked in a 10 mM solution of the DSP-active ester in DMSO for 30 min at room temperature. The functionalized electrodes were rinsed with DMSO and water and incubated in a 100 μg·m]L^−1 solution of protein G, for 90 min in a phosphate buffer saline solution, pH=7.4, at room temperature, to couple covalently protein G lysine residues to the functionalized electrodes. The protein G-functionalized electrodes were then allowed to interact with the Fc fragment of the anti-CA-antibody, 1 μg·mL^−1, 30 min at room temperature, to yield the sensing interfaces.\n(§2) The antibody-functionalized electrode was interacted with varying concentrations of the Gag polyprotein generated in the translation mixture for 60 min. diluted to 1.0 mL in phosphate-buffered saline (PBS) solution, 0.1 M, pH 7.0, at room temperature. After attachment of the respective polyprotein to the sensing interface, the electrode was incubated in the solution of anti-MA or anti-CA (sources were 200-fold diluted) for 30 min at room temperature. After attachment to the respective antibody, the electrode was incubated either in a goat-anti-rabbit-HRP conjugate solution (2.5 μg·mL^−1), for the MA analysis, or in a goat-anti-mouse-HRP conjugate solution (2.5 μg·mL^−1) for the CA analysis, for 30 minutes at room temperature. 4-Chloro-1-naphthol (1) (FIG. 1D) was dissolved initially in ethanol and then the ethanolic stock solution was diluted with 0.1 M phosphate buffer, pH 7.0, to yield the developing solution that included 1×10^−3 M (1) and 2% (v/v) ethanol. The modified electrodes consisting of the HRP-tagged antibody-functionalized electrodes were incubated in the developing solution of (1) for a fixed and controlled time of 10 minutes at room temperature to stimulate the precipitation of (2) (FIG. 1D).\n(§3) After incubation of the respective electrodes in the probe solution, the electrodes were rinsed with 0.1 M phosphate buffer, pH 7.0, and introduced into the electrochemical cell for their analyses by Faradaic impedance spectroscopy. It should be noted that after each step the electrode was rinsed thoroughly with buffer solution, pH 7.0, to eliminate any non-specific adsorbates on the electrode. In the microgravimetric quartz crystal microbalance measurements, the various modification and amplification steps, including the rinsing steps, were performed in the flow cell of the QCM apparatus.\n(§4) All the RNA preparations were translated in vitro using the “Biotin in vitro translation kit” (Roche 1559951) in the absence or presence of Saquinavir (Ro 31-8959). Reactions were performed in 50 μL, according to the manufacturer's instructions, using DEPC-treated water. The PR inhibitor Saquinavir was dissolved in 1M NaCl in the DEPC-treated water, and was added to reaction mixtures before starting the synthesis."}, "[4]": {"biological_target": "T2, HIV-1 viral protease (PR)", "assay_type": "biochemical", "description": "as §2, §3, §4"}, "AIDS patients": {"tested_on": "AIDS patients", "settings": "cited from earlier work"}, "viral PR": {"biological_target": "viral PR (Human immunodeficiency virus type 1 group M subtype B, UniProt P04585)", "assay_type": "biochemical", "settings": "RNA of HIV-1 infected cultured cells, increased concentrations of saquinavir, FIG. 8", "description": "as §2\nAll the RNA preparations were translated in vitro using the “Biotin in vitro translation kit” (Roche 1559951) in the absence or presence of Saquinavir (Ro 31-8959). […]"}, "[5]": {"settings": "translation of bacterial RNA in the presence of saquinavir 1×10^−4 M"}},
  "note": "Like-named read-outs stand apart in the source and are kept apart here.",
  "data": [
    {"molecule": "CC(C)(C)NC(=O)[C@@H]1C[C@@H]2CCCC[C@@H]2CN1C[C@@H](O)[C@H](Cc1ccccc1)NC(=O)[C@H](CC(N)=O)NC(=O)c1ccc2ccccc2n1", "note": "[saquinavir]", "values": [
      {"measurement": "ratio Ret^B(2)/Ret^A(2)", "setting": "[1]", "result": 0.43},
      {"measurement": "electron transfer resistance Ret, path A(2), anti-MA analysis (curve d)", "setting": "[1]; wild type virus, saquinavir 1×10^−4 M, non-inhibited path B(2) Ret=6", "result": 14, "unit": "kω"},
      {"measurement": "effect of the inhibitor on the protease activity", "setting": "G48V mutated PR", "result": "no effect of the inhibitor is observed"},
      {"measurement": "interfacial resistance Ret, path A(2) with the inhibitor (curve d)", "setting": "G48V mutated PR; identical to path B(2) without inhibitor", "result": "≈ 11 kΩ"},
      {"measurement": "ratio Ret^B(2)/Ret^A(2)", "setting": "G48V mutated PR; without vs with inhibitor", "result": 1},
      {"measurement": "α = Ret^B(1)/Ret^A(1)", "setting": "[2]; Patient # 1", "result": "1.17 ± 0.03"},
      {"measurement": "β = Ret^B(2)/Ret^A(2)", "setting": "[2]; Patient # 1", "result": "0.87 ± 0.04"},
      {"measurement": "α = Ret^B(1)/Ret^A(1)", "setting": "[2]; Patient # 2", "result": "1.07 ± 0.03"},
      {"measurement": "β = Ret^B(2)/Ret^A(2)", "setting": "[2]; Patient # 2", "result": "1.1 ± 0.04"},
      {"measurement": "α = Ret^B(1)/Ret^A(1)", "setting": "[2]; Patient # 3", "result": "1.04 ± 0.03"},
      {"measurement": "β = Ret^B(2)/Ret^A(2)", "setting": "[2]; Patient # 3", "result": "0.75 ± 0.04"},
      {"measurement": "α = Ret^B(1)/Ret^A(1)", "setting": "[2]; Patient # 4", "result": "1.10 ± 0.03"},
      {"measurement": "β = Ret^B(2)/Ret^A(2)", "setting": "[2]; Patient # 4", "result": "0.79 ± 0.04"},
      {"measurement": "α = Ret^B(1)/Ret^A(1)", "setting": "[2]; Patient # 5", "result": "1.0 ± 0.03"},
      {"measurement": "β = Ret^B(2)/Ret^A(2)", "setting": "[2]; Patient # 5", "result": "1.07 ± 0.04"},
      {"measurement": "ΔRet upon precipitation, non-inhibited mixture lower than inhibited translation mixture", "setting": "[3]; identical quantities of mRNA, absence vs presence of Saquinavir", "result": 4, "unit": "fold"},
      {"measurement": "increase in interfacial electron transfer resistance ΔRet upon the precipitation of (20)", "setting": "[3]; inhibited translation mixture, non-inhibited mixture ΔRet=500 Ω", "result": "≈ 2000 Ω"},
      {"measurement": "interfacial electron transfer resistance Ret after biocatalyzed precipitation of (20) (curve f)", "setting": "[3]", "result": "5000 Ω"},
      {"measurement": "interfacial electron transfer resistance Ret after biocatalyzed precipitation of (20) (curve f)", "setting": "[3]; listed as Saquinavir", "result": "ca. 5100 Ω"},
      {"measurement": "electron transfer resistance Ret after addition of anti-anti-MA-HRP conjugate (curve e)", "setting": "[3]; [5]", "result": "3000 Ω"},
      {"measurement": "interfacial electron-transfer resistance Ret after association of anti-MA-Ab (curve d)", "setting": "[3]; [5]", "result": "2800 Ω"},
      {"measurement": "interfacial electron-transfer resistance after binding of the Gag polyprotein to anti-CA-Ab (curve c)", "setting": "[3]; [5]", "result": "2100 Ω"},
      {"measurement": "Anti-MA Δf", "setting": "[4]", "result": "−80", "unit": "Hz"},
      {"measurement": "Anti-anti MA/HRP Δf", "setting": "[4]", "result": "−140", "unit": "Hz"},
      {"measurement": "Precipitation of (2) Δf", "setting": "[4]", "result": "−100", "unit": "Hz"},
      {"measurement": "frequency change upon treatment of the surface with the translated proteins", "setting": "[4]", "result": "−50", "unit": "Hz"},
      {"measurement": "clinical condition under treatment", "setting": "AIDS patients; all other patients (#1, #3, #4), subjective statements of the physicians", "result": "balanced conditions"},
      {"measurement": "clinical response to treatment", "setting": "AIDS patients; patients #2 and #5, subjective statements of the physicians", "result": "did not react to the treatment"},
      {"measurement": "interfacial electron transfer resistance as the concentration of the inhibitor increases", "setting": "viral PR", "result": "enhanced"}
    ]}
  ]
}
